Data as given in the OPERA property sets (Mansouri et al. 2018).

| SMILES | logP |
| --- | --- |
| c1ccc(-c2cccc(-c3ccccn3)n2)nc1 | 1.96 |
| c1ccc2cc3cc4cc5ccccc5cc4cc3cc2c1 | 7.11 |
| c1ccc(-c2c3ccccc3c(-c3ccccc3)c3ccccc23)cc1 | 8.46 |
| c1ccc2c(c1)c1ccccc1c1c3ccccc3c3ccccc3c21 | 8.39 |
| c1ccc2c(c1)Cc1ccccc1O2 | 4.23 |
| c1cc2ccc3ccc4ccc5ccc6ccc1c1c2c3c4c5c61 | 7.64 |
| c1ccc2cc3c(ccc4c5ccccc5ccc34)cc2c1 | 7.11 |
| c1ccc2c(c1)ccc1c2ccc2ccc3ccccc3c21 | 7.11 |
| c1ccc2c(c1)Sc1ccccc1S2 | 4.47 |
| c1cc2ccc3cc4cccc5ccc6cc(c1)c2c3c6c54 | 7.04 |
| c1ccc2c(c1)ccc1c2ccc2c3ccccc3ccc21 | 7.11 |
| c1ccc2cc3c(cc2c1)oc1ccccc13 | 5.05 |
| c1ccc(-c2ccccn2)nc1 | 1.5 |
| c1ccc2c(c1)c1cccc3ccc4cccc2c4c31 | 6.44 |
| c1ccc2cc3c(cc2c1)sc1ccccc13 | 5.34 |
| c1cc(-c2ccncc2)ccn1 | 1.28 |
| c1csc(-c2cccs2)c1 | 3.75 |
| c1ccc2c(c1)cc1ccc3cccc4c5ccccc5c2c1c34 | 7.71 |
